Measured values as given in PMC12363342, “Investigating the N-terminal linker histone H1 subtypes as substrates for JmjC lysine demethylases” (RSC Chemical Biology, 2025).
Square brackets hold non-standard residues; d marks the D form. Ends that are not written are not given here. Lys(Me3) = C[N+](C)(C)CCCC[C@H](N)C(=O)O

test system: KDM5D; experiment: LC-MS demethylation activity assay, KDM5D; format: biochemical, human; details: 2 μM KDM, 10 μM H1/H3 peptide, 10 μM FAS, 100 μM LAA, 20 μM 2OG, 50 mM HEPES pH 7.5, 2 h, room temperature, T (tri-) initial methylation state
Summary of the method: (§1)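 H1 isoform peptides (10 μM) were incubated 2 h at room temperature with 2 μM recombinant N-terminally His6-tagged catalytic domains in 50 mM HEPES pH 7.5 containing FAS (10 μM), ascorbate (100 μM) and 2OG (20 μM). Reactions were quenched with formic acid (1% final), and demethylation was analysed by LC-MS (Q-TOF).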

| Substance | KDM5D demethylation activity, T |
| --- | --- |
| KKKAAK[Lys(Me3)]AGGTPRKA [Peptide H1.2K26me3, 15-mer linker histone H1.2 residues 20-34 peptide, tri-methylated K26] | ● [red] |
| KKKAR[Lys(Me3)]SAGAAKRKA [Peptide H1.4K25me3, 15-mer linker histone H1.4 residues 20-34 peptide, tri-methylated K25] | ● [red] |
| KKKAA[Lys(Me3)]KAGGTPRKA [Peptide H1.2K25me3, 15-mer linker histone H1.2 residues 20-34 peptide, tri-methylated K25] | ● [red] |
| KKKA[Lys(Me3)]KAGATAGKRK [Peptide H1.3K24me3, 15-mer linker histone H1.3 residues 20-34 peptide, tri-methylated K24] | ● [red] |
| KKKATK[Lys(Me3)]AAGAGAAK [Peptide H1.5K26me3, 15-mer linker histone H1.5 residues 20-34 peptide, tri-methylated K26] | ● [red] |

test system: KDM3A; experiment: LC-MS demethylation activity assay, KDM3A; format: biochemical, human; details: 2 μM KDM, 10 μM H1/H3 peptide, 10 μM FAS, 100 μM LAA, 20 μM 2OG, 50 mM HEPES pH 7.5, 2 h, room temperature, T (tri-) initial methylation state
Summary of the method: as §1

| Substance | KDM3A demethylation activity, T |
| --- | --- |
| KKKAAK[Lys(Me3)]AGGTPRKA [Peptide H1.2K26me3, 15-mer linker histone H1.2 residues 20-34 peptide, tri-methylated K26] | ● [red] |
| KKKAR[Lys(Me3)]SAGAAKRKA [Peptide H1.4K25me3, 15-mer linker histone H1.4 residues 20-34 peptide, tri-methylated K25] | ● [red] |
| KKKAA[Lys(Me3)]KAGGTPRKA [Peptide H1.2K25me3, 15-mer linker histone H1.2 residues 20-34 peptide, tri-methylated K25] | ● [red] |
| KKKA[Lys(Me3)]KAGATAGKRK [Peptide H1.3K24me3, 15-mer linker histone H1.3 residues 20-34 peptide, tri-methylated K24] | ● [red] |
| KKKATK[Lys(Me3)]AAGAGAAK [Peptide H1.5K26me3, 15-mer linker histone H1.5 residues 20-34 peptide, tri-methylated K26] | ● [red] |
